In publication PMC5017749, “Preclinical Metabolism, Pharmacokinetics and In Vivo Analysis of New Blood-Brain-Barrier Penetrant Fingolimod Analogues: FTY720-C2 and FTY720-Mitoxy” (PLoS ONE, 2016):

Tests used:
[1] = Metabolite profiling and identification in rat hepatocytes; type: in vitro ADME, rat (Sprague Dawley); design: key to Source (peak identified in rat hepatocytes): R = Rat; hr = Human; lowercase letter indicates low abundance; h: lowercase letter indicates low abundance; conditions: for phosphorylated metabolites / parent peak after 2 hr incubation: rat hepatocytes; for parent peak after 2 hr incubation: 1 μM
Experimental: Cryopreserved hepatocytes were grown in culture and incubations were performed to generate samples to measure the formation of FTY720-C2 and FTY720-Mitoxy metabolites. Incubations of 1 mL medium containing 1 million cells and 1 μM of FTY720-C2 and FTY720-Mitoxy were conducted at 37° C in a 5% CO2 incubator for 0, 1 and 2 hr, with gentle shaking. Positive control incubations used a cocktail solution containing 10 μM testosterone and 10 μM diclofenac performed for 0, 1 and 2 hr, under similar conditions to confirm the metabolic activity of the hepatocytes. The reactions were terminated by adding 2 mL acetonitrile containing 0.02% formic acid, and thoroughly mixing with gentle vortexing. Samples were transferred into 6 mL vials and stored in the freezer (-70°C) overnight for protein precipitation. Following overnight precipitations, samples were centrifuged at 3,000 rpm for 10 min to pellet proteins. Supernatants were transferred into clean 6 mL vials and evaporated to dryness using a TurboVap concentrator system. Samples were reconstituted using 600 μL 20% acetonitrile in water, briefly vortexed to resuspend, then aliquoted for LC-MS/MS analysis. Controls incubations also included “No drug control” and “no cell control” samples treated in a similar manner as test article samples.
Metabolite profiling and identification experiments were conducted by LC-MS/MS, composed of an HPLC system consisting of an Agilent Technologies 1200 Series Model G1322A Degasser, Agilent Technologies 1200 Series Model G1312A Binary Pump, Shimadzu HTc autosampler, and Valco Model E60 Flow Diversion Valve, and coupled to an API 4000 mass spectrometer. Separations were accomplished on a Gemini C18 column (150 × 2.0 mm, 5-μm particles; Phenomenex Inc., Torrance, CA), preceded by a SecurityGuard C18 guard column (4.0 × 2.0 mm; Phenomenex Inc.). A two-component mobile phase, consisted of a linear gradient of water containing 0.5% formic acid (v/v) and methanol:acetonitrile (1:1, v/v) containing 0.5% formic acid (v/v), was pumped at 0.3 mL/min. The first 4 min of flow was diverted away from the mass spectrometer. Analysis of the positive control samples was conducted with an HPLC system consisting of two Shimadzu LC-10ATvp pumps and a LEAP Pal autosampler. Separations were accomplished on a Luna C8(2) column (50 × 2.0 mm, 3-μm particles; Phenomenex Inc., Torrance, CA), preceded by a SecurityGuard C18 column (4.0 × 2.0 mm; Phenomenex Inc.). Separation was accomplished with a gradient of water containing 0.2% formic acid and 0.012% NH4OH (v/v) versus acetonitrile at an initial rate of 0.7 mL/min. An API 4000 QTrap mass spectrometer (AB Sciex, Foster City, CA) was used for analysis of positive control samples. Each mass spectrometer used was equipped with an electrospray ionization source and operated in the positive ionization mode. Metabolite identification experiments were performed by recording full scan mass spectral data (Q1MS) for all samples, and selected samples were analyzed to obtain product ion spectra (MS/MS) of test article metabolites identified in the full scan mass spectral data.

[2] = Metabolic stability (intrinsic clearance) in rat liver microsomes; type: in vitro ADME, rat (Sprague-Dawley); conditions: for microsomal CLint at 1 μM: Sprague-Dawley, pH 7.4, 0.1 mg/mL protein, mean of two determinations; for microsomal CLint at 1 μM / intrinsic clearance interpreted in words / percent of the remaining compound: rat liver microsomes; for percent of the remaining compound: after 60 minute incubation; for Clint in rat liver microsomes relative to human liver microsomes: rat vs human liver microsomes
Experimental: (§1) Liver microsomal incubations contained 0.1mg/mL microsomal proteins and 1 μM of FTY720-C2 or FTY720-Mitoxy in 100 mM potassium phosphate buffer (pH 7.4) ± an NADPH regenerating system (3.5 mM glucose 6-phosphate, 1.3 mM NADP^+, and 0.4 units/mL glucose-6-phosphate dehydrogenase). Following incubations, reactions were terminated for analysis after 0, 10, 20, 30, and 60 min by the addition of acetonitrile containing C17 sphingosine (300 ng/mL) as the internal standard. Samples were vigorously mixed and centrifuged at 3,400 rpm for 10 min to pellet precipitated proteins. An aliquot of each supernatant was used for LC/MS analysis, for determination of the remaining FTY720-C2 and FTY720-Mitoxy. Similar incubations were performed using a cocktail solution containing 0.2 μM midazolam and 1 μM diclofenac to determine the metabolic activity of the microsomes as an additional control.
(§2) Samples resulting from liver microsomal incubations were analyzed by LC-MS/MS. Aliquots of the supernatants were injected onto an X-Bridge C18 column (2.1 × 50 mm, 3.5-μm particles) (Waters, Milford, MA), preceded by a SecurityGuard C18 guard column (4.0 × 2.0 mm; Phenomenex Inc.). Separations were accomplished with a gradient of 0.1% acetic acid in water (v/v) versus 0.1% acetic acid in acetonitrile: methanol (75:25, v/v) at a rate of 0.8 mL/min. The eluents were further applied into an equipped API 4000 QTrap mass spectrometer (AB Sciex, Foster City, CA) with electrospray ionization (ESI) interface by two coupled LC-10 AT pumps. Peak area ratios of FTY720-C2 or FTY720-Mitoxy against the C17 sphingosine internal standard were used to determine the amount of parent remaining compared to that at 0 min. The percent of FTY720-C2 or FTY720-Mitoxy remaining was calculated by dividing the peak area ratio obtained at each time point by that obtained at 0 min. The in vitro intrinsic clearance (CLint) was calculated by linear regression of the log percent of compound remaining versus time plots using Microsoft Excel, two independent experiments (n = 2) were performed for each compound and species. Then, the mean and standard deviation (SD), of two values for each condition, were calculated using Microsoft Excel with the “AVERAGE” and “STDEV” functions, respectively.

[3] = Metabolic stability (intrinsic clearance) in monkey liver microsomes; type: in vitro ADME, monkey (Cynomolgus); conditions: for percent of the remaining compound: after 60 minute incubation
Experimental: as §1, §2

[4] = Metabolic stability (intrinsic clearance) in human liver microsomes; type: in vitro ADME; conditions: for percent of the remaining compound: after 60 minute incubation; for microsomal CLint at 1 μM: pH 7.4, 0.1 mg/mL protein, mean of two determinations
Experimental: as §1, §2

[5] = Metabolic stability (intrinsic clearance) in mouse liver microsomes; type: in vitro ADME, mouse (CD-1); conditions: for percent of the remaining compound: after 60 minute incubation
Experimental: as §1, §2

[6] = Metabolic stability (intrinsic clearance) in dog liver microsomes; type: in vitro ADME, dog (Beagle); conditions: for microsomal CLint at 1 μM: Beagle; for percent of the remaining compound: after 60 minute incubation
Experimental: as §1, §2

Structure (SMILES) | phosphorylated metabolites [1] | parent peak after 2 hr incubation [1] | microsomal CLint at 1 μM [2] | intrinsic clearance interpreted in words [2] | percent of the remaining compound [2] | Clint in rat liver microsomes relative to human liver microsomes [2] | intrinsic clearance interpreted in words ([3]; monkey liver microsomes) | percent of the remaining compound ([3]; monkey liver microsomes) | intrinsic clearance interpreted in words [4] | percent of the remaining compound [4] | microsomal CLint at 1 μM [4] | intrinsic clearance interpreted in words ([5]; mouse liver microsomes) | percent of the remaining compound ([5]; mouse liver microsomes) | intrinsic clearance interpreted in words ([6]; dog liver microsomes) | percent of the remaining compound ([6]; dog liver microsomes) | further results
CCCCCCCCc1ccc(CCC(CO)(CO)NC(C)=O)cc1 [FTY720-C2, N-(1-hydroxy-2-(hydroxymethyl)-4-(4-octylphenyl)butan-2-yl)acetamide] | never detected | drastically diminished | 79.5 ± 1.41 µL/min/mg | high | 1.0 ± 0% | ~ 4 fold | moderate | 30.0 ± 0.3% | moderate | 33.5 ± 4.5% | 18.3 ± 2.4 µL/min/mg | moderate | 29.5 ± 2.1% | low | 69.9 ± 0.6% | Source (peak identified in rat hepatocytes) ([1]; FTY720-C2 incubation, Table 4): R; microsomal CLint at 1 μM ([3]; pH 7.4, monkey liver microsomes, 0.1 mg/mL protein, 1 μM, mean of two determinations): 20.2 µL/min/mg; microsomal CLint at 1 μM ([5]; CD-1, pH 7.4, mouse liver microsomes, 0.1 mg/mL protein, 1 μM, mean of two determinations): 22.5 ± 2.12 µL/min/mg; microsomal CLint at 1 μM ([6]; pH 7.4, dog liver microsomes, 0.1 mg/mL protein, 1 μM, mean of two determinations): 6 ± 0.28 µL/min/mg
CCCCCCCCc1ccc(CCC(CO)(CO)NC(=O)CC[P+](c2ccccc2)(c2ccccc2)c2ccccc2)cc1 [FTY720-Mitoxy, N-(1-hydroxy-2-(hydroxymethyl)-4-(4-octylphenyl)butan-2-yl)-3’-triphenylphosphoniumpropanamide] | never detected | most FTY720-Mitoxy was still unchanged | 7.8 ± 1.98 µL/min/mg | low | 65.5 ± 4.9% | around half | high | 1.4 ± 0.3% | moderate | 35.5 ± 2.3% | 17.5 ± 1.7 µL/min/mg | low | 82.5 ± 16.3% | low | 112.5 ± 5.0% | Source (peak identified in rat hepatocytes) ([1]; FTY720-Mitoxy incubation, Table 5): R; Clint (intrinsic clearance) ([3]; monkey liver microsomes, 0.1 mg/mL protein, 1 μM, mean of two determinations): 135.3 ± 10.61 µL/min/mg; microsomal CLint at 1 μM ([3]; monkey, liver microsomes, pH 7.4, monkey liver microsomes, 0.1 mg/mL protein, 1 μM, mean of two determinations): 135 µL/min/mg; microsomal CLint at 1 μM ([5]; CD-1, mouse, liver microsomes, pH 7.4, mouse liver microsomes, 0.1 mg/mL protein, 1 μM, mean of two determinations): 1.8 µL/min/mg; Clint (intrinsic clearance) ([5]; mouse liver microsomes, 0.1 mg/mL protein, 1 μM, mean of two determinations): 1.75 ± 1.34 µL/min/mg; microsomal CLint at 1 μM ([6]; dog, liver microsomes, pH 7.4, dog liver microsomes, 0.1 mg/mL protein, 1 μM, mean of two determinations): 1.4 µL/min/mg; Clint (intrinsic clearance) ([6]; dog liver microsomes, 0.1 mg/mL protein, 1 μM, mean of two determinations): 1.35 ± 1.48 µL/min/mg
